Values joined by “and” are separate entries in the source; they are usually repeats but may differ in a detail not shown here. Equal entries are not always repeated. Toxic doses and inconclusive results are not listed. The calls were made as follows: active = survival T/C of 150% or more; inactive = T/C below 125% in these data.
Tested on: BDF1 mice, B16 melanoma ip, median survival T/C
Assay: NCI In Vivo Anticancer Drug Screen. Data for tumor model B16 Melanoma (intraperitoneal) in B6D2F1 (BDF1) mice
Settings: endpoint: median survival time, schedule: Q01DX009 (ip), higher = longer survival
In short: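 Read-out: survival or tumor size, given as treated/control ratio. Controls received vehicle only; animals bore transplantable tumors.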

Measured: T/C

C=C1C(=O)O[C@@H]2[C@H](O)[C@@H](C)[C@@H]3C=CC(=O)[C@@]3(C)[C@@H](OC(=O)/C(C)=C/C)[C@H]12
inactive: dose: 1.5 mg/kg/injection, vehicle: other 101 % of control | dose: 1.5 mg/kg/injection, vehicle: saline + alcohol 92 % of control | dose: 3.0 mg/kg/injection, vehicle: other 98 % of control | dose: 3.0 mg/kg/injection, vehicle: saline + alcohol 96 % of control | dose: 6.0 mg/kg/injection, vehicle: other 99 % of control | dose: 6.0 mg/kg/injection, vehicle: saline + alcohol 96 % of control

CC1(S)CCC2CC1C2(C)C (stereo unspecified)
inactive: dose: 12.5 mg/kg/injection, vehicle: Klucel (hydroxypropylcellulose) (HPC) 94 % of control | dose: 25.0 mg/kg/injection, vehicle: Klucel (hydroxypropylcellulose) (HPC) 94 % of control | dose: 50.0 mg/kg/injection, vehicle: Klucel (hydroxypropylcellulose) (HPC) 89 % of control

NC(CS/C(Cl)=C/Cl)C(=O)O (stereo unspecified)
inactive: dose: 12.0 mg/kg/injection, vehicle: other 102 % of control | dose: 18.0 mg/kg/injection, vehicle: other 90 % of control | dose: 27.0 mg/kg/injection, vehicle: other 90 % of control

CC(=Nc1ccccc1)C1=C(O)C(Cc2ccccc2)NC1=O (stereo unspecified)
inactive: dose: 12.5 mg/kg/injection, vehicle: saline with Tween-80 100 % of control | dose: 25.0 mg/kg/injection, vehicle: saline with Tween-80 102 % of control | dose: 50.0 mg/kg/injection, vehicle: saline with Tween-80 106 % of control | dose: 100.0 mg/kg/injection, vehicle: saline with Tween-80 98 % of control and 100 % of control

— PubChem BioAssay AID192 (DTP/NCI, 2004)
